# Assay results as given in patent US12466826B2, “3-benzoyl-1H-pyrrolo[2,3-b]pyridine derivatives as MKK4 inhibitors for treating liver diseases” (HepaRegeniX GmbH, priority 2020, dated 2025).
# Tests used:
# Assay type in all cases: biochemical
# [1] = molecular target: T1, MKK4 (Homo sapiens, UniProt P45985); experiment: 33PanQinase kinase assay, MKK4 potency; conditions: based on inhibition of enzyme activity at a single concentration or on IC50-values
# T1 construct: purchased ProQinase GmbH, Freiburg, Germany (assay service)
# T1 sequence (P45985 1-399): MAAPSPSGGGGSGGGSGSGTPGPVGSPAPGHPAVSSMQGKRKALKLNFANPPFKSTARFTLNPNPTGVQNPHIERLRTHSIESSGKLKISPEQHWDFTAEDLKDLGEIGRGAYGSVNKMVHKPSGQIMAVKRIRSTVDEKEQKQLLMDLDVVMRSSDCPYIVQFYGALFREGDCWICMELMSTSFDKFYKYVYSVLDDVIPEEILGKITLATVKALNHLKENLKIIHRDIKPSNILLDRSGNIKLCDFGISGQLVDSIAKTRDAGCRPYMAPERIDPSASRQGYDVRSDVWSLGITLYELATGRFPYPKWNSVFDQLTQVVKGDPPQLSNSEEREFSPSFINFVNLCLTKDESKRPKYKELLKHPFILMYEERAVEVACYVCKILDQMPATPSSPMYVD
# Procedure: (§1) The kinase activities of the compounds of the invention were measured using the 33PanQinase® Assay Service provided by ProQinase GmbH, Freiburg, Germany. Details of the assay conditions are disclosed on the website of ProQinase (https://www.proqinase.com/products-services-biochemical-assay-services/kinase-assays).
# (§2) In brief, all kinase assays were performed in 96-well FlashPlates™ from PerkinElmer (Boston, MA, USA) in a 50 μl reaction volume. The reaction cocktail was pipetted in four steps in the following order: • 20 μl of assay buffer (standard buffer) • 5 μl of ATP solution (in H2O) • 5 μl of test compound (in 10% DMSO) • 20 μl enzyme/substrate mix
# (§3) The assay for all protein kinases contained 70 mM HEPES-NaOH pH7.5, 3 mM MgCl2, 3 mM MnCl2, 3 μM Na-orthovanadate, 1.2 mM DTT, 50 μg/ml PEG20000, ATP (variable concentrations, corresponding to the apparent ATP-Km of the respective kinase), [γ-^33P]-ATP (approx. […] per well), protein kinase and substrate.
# (§4) The reaction cocktails were incubated at 30° C. for 60 minutes. The reaction is stopped with 50 μl of 2% (v/v) H3PO4, plates were aspirated and washed two times with 200 μl 0.9% (w/v) NaCl. Incorporation of ^33Pi was determined with a microplate scintillation counter (Microbeta, Wallac).
# (§5) All assays were performed with a BeckmanCoulter/SAGIAN™ Core System.
# (§6) In case of single concentration assays, the potency of the test compound is expressed as % residual activity. For determination of IC50-values, serial dilutions in the final concentration range between 100 μM and 3 nM (10 concentrations) were tested. The fitting model for the IC50 determinations was “Sigmoidal response (variable slope)” with parameters “top” fixed at 100% and “bottom” at 0%. The fitting method used was a least-squares fit.
# [2] = molecular target: T2, JNK1 (Homo sapiens, UniProt P45983); experiment: 33PanQinase kinase assay, selectivity against JNK1; conditions: ratio IC50 (JNK1)/IC50 (MKK4)
# T2 construct: purchased ProQinase GmbH, Freiburg, Germany (assay service)
# Procedure: as §1, §2, §3, §4, §5, §6
# (§7) Selectivity of test compounds against BRaf, JNK1 and MKK7, altogether denominated as off-targets was calculated by the ratio of IC50 (off-target)/IC50 (MKK4) and categorized as follows: […]
# [3] = molecular target: T3, BRaf (Homo sapiens, UniProt P15056); experiment: 33PanQinase kinase assay, selectivity against BRaf; conditions: ratio IC50 (BRaf)/IC50 (MKK4)
# T3 construct: purchased ProQinase GmbH, Freiburg, Germany (assay service)
# Procedure: as §1, §2, §3, §4, §5, §6, §7
# [4] = molecular target: T4, MKK7 (Homo sapiens, UniProt O14733); experiment: 33PanQinase kinase assay, selectivity against MKK7; conditions: ratio IC50 (MKK7)/IC50 (MKK4)
# T4 construct: purchased ProQinase GmbH, Freiburg, Germany (assay service)
# T4 sequence (O14733 1-419): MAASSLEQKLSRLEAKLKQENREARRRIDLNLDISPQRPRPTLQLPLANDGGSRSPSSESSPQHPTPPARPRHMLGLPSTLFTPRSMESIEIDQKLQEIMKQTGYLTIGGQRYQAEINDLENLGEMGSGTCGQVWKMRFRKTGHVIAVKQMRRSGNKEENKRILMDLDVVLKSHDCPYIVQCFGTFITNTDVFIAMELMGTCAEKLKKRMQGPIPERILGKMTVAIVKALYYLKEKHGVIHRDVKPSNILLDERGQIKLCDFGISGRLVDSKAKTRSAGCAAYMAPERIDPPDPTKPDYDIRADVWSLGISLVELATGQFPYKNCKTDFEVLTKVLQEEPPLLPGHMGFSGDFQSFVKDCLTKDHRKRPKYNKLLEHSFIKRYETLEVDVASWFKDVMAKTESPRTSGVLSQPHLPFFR
# Procedure: as §1, §2, §3, §4, §5, §6, §7
# T3 sequence (P15056 whole entry): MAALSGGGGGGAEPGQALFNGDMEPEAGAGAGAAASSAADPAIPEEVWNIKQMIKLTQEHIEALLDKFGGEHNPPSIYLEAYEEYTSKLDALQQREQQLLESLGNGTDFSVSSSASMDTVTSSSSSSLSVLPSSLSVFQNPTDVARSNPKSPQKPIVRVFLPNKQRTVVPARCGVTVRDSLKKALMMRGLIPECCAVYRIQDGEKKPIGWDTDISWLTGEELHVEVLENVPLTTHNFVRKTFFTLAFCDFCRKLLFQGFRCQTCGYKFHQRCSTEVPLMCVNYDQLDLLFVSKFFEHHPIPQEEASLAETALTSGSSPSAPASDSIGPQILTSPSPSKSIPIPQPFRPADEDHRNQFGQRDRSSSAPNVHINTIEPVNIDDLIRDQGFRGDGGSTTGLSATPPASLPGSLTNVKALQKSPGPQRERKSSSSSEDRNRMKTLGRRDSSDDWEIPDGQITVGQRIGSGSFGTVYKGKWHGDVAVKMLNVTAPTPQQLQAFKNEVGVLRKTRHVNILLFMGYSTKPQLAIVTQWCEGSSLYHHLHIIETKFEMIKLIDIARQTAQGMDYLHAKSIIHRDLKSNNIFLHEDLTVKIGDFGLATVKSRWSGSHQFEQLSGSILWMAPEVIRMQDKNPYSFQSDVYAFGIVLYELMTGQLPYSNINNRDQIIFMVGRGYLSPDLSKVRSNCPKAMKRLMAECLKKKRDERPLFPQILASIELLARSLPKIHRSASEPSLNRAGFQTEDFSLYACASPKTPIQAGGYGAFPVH
# T2 sequence (P45983 whole entry): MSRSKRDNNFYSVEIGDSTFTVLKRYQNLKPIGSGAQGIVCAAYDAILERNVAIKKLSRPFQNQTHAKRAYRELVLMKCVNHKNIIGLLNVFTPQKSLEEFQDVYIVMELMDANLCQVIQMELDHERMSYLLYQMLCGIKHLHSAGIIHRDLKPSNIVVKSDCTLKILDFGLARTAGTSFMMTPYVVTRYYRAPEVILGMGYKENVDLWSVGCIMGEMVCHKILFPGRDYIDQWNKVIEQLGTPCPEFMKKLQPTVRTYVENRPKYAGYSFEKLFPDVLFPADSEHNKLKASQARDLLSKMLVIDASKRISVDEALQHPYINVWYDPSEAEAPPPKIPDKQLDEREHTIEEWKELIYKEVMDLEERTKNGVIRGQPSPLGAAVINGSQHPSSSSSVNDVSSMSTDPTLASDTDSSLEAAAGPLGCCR
Structure (SMILES),IC50 [1] [nM],"Selectivity BRaf, IC50(off-target)/IC50(MKK4) [3]","Selectivity MKK7, IC50(off-target)/IC50(MKK4) [4]","Selectivity JNK1, IC50(off-target)/IC50(MKK4) [2]"
"CCCS(=O)(=O)Nc1c(F)ccc(C(=O)c2c[nH]c3ncc(-c4ccc(C(=O)NOCCO)cc4)cc23)c1F [Example 3, 4-(3-(2,4-difluoro-3-(propylsulfonamido)benzoyl)-1H-pyrrolo[2,3-b]pyridin-5-yl)-N-(2-hydroxyethoxy)benzamide]",< 100,++ (100 ≥ IC50(off-target)/IC50(MKK4) > 10),+++ (IC50(off-target)/IC50(MKK4) > 100),++ (100 ≥ IC50(off-target)/IC50(MKK4) > 10)
CCCS(=O)(=O)Nc1c(F)ccc(C(=O)c2c[nH]c3ncc(-c4ccc(P(C)(C)=O)cc4)cc23)c1F [Example 4],< 100,++ (100 ≥ IC50(off-target)/IC50(MKK4) > 10),+++ (IC50(off-target)/IC50(MKK4) > 100),++ (100 ≥ IC50(off-target)/IC50(MKK4) > 10)
CCCS(=O)(=O)Nc1c(F)ccc(C(=O)c2c[nH]c3ncc(-c4cnc(C5CCC5)nc4)cc23)c1F [Example 5],100 to 1000,+++ (IC50(off-target)/IC50(MKK4) > 100),+++ (IC50(off-target)/IC50(MKK4) > 100),+++ (IC50(off-target)/IC50(MKK4) > 100)
CCCS(=O)(=O)Nc1c(F)ccc(C(=O)c2c[nH]c3ncc(-c4cnc(C5CCCC5)nc4)cc23)c1F [Example 6],1000 to 10000,+++ (IC50(off-target)/IC50(MKK4) > 100),+++ (IC50(off-target)/IC50(MKK4) > 100),++ (100 ≥ IC50(off-target)/IC50(MKK4) > 10)
CCCS(=O)(=O)Nc1c(F)ccc(C(=O)c2c[nH]c3ncc(-c4cnc(OC)nc4C)cc23)c1F [Example 8],< 100,++ (100 ≥ IC50(off-target)/IC50(MKK4) > 10),+++ (IC50(off-target)/IC50(MKK4) > 100),+ (10 ≥ IC50(off-target)/IC50(MKK4) > 3)
CCCS(=O)(=O)Nc1c(F)ccc(C(=O)c2c[nH]c3ncc(-c4cnc(C5CC5)nc4C)cc23)c1F [Example 11],< 100,+++ (IC50(off-target)/IC50(MKK4) > 100),+++ (IC50(off-target)/IC50(MKK4) > 100),+++ (IC50(off-target)/IC50(MKK4) > 100)
CCCS(=O)(=O)Nc1c(F)ccc(C(=O)c2c[nH]c3ncc(-c4cnc(C5CC5)nc4SC)cc23)c1F [Example 12],100 to 1000,++ (100 ≥ IC50(off-target)/IC50(MKK4) > 10),+++ (IC50(off-target)/IC50(MKK4) > 100),++ (100 ≥ IC50(off-target)/IC50(MKK4) > 10)
CCCS(=O)(=O)Nc1c(F)ccc(C(=O)c2c[nH]c3ncc(-c4cnc(OCC(C)(C)C)nc4)cc23)c1F [Example 13],> 10000,+ (10 ≥ IC50(off-target)/IC50(MKK4) > 3),+ (10 ≥ IC50(off-target)/IC50(MKK4) > 3),+ (10 ≥ IC50(off-target)/IC50(MKK4) > 3)
O=C(c1c(F)cc(F)c(NS(=O)(=O)Cc2ccccc2)c1F)c1c[nH]c2ncc(-c3cnc(C4CC4)nc3)cc12 [Example 14],< 100,++ (100 ≥ IC50(off-target)/IC50(MKK4) > 10),+++ (IC50(off-target)/IC50(MKK4) > 100),++ (100 ≥ IC50(off-target)/IC50(MKK4) > 10)

# Now from value to compound, other results behind:
IC50 [1] [nM],"Selectivity BRaf, IC50(off-target)/IC50(MKK4) [3]","Selectivity MKK7, IC50(off-target)/IC50(MKK4) [4]",Structure (SMILES),"Selectivity JNK1, IC50(off-target)/IC50(MKK4) [2]"
< 100,+++ (IC50(off-target)/IC50(MKK4) > 100),+++ (IC50(off-target)/IC50(MKK4) > 100),CCCS(=O)(=O)Nc1c(F)cc(F)c(C(=O)c2c[nH]c3ncc(-c4cnc(C5CC5)nc4)cc23)c1F [Example 7],+++ (IC50(off-target)/IC50(MKK4) > 100)
< 100,+++ (IC50(off-target)/IC50(MKK4) > 100),+++ (IC50(off-target)/IC50(MKK4) > 100),CCCS(=O)(=O)Nc1c(F)ccc(C(=O)c2c[nH]c3ncc(-c4cncnc4C)cc23)c1F [Example 9],++ (100 ≥ IC50(off-target)/IC50(MKK4) > 10)
< 100,+++ (IC50(off-target)/IC50(MKK4) > 100),+++ (IC50(off-target)/IC50(MKK4) > 100),CCCS(=O)(=O)Nc1c(F)ccc(C(=O)c2c[nH]c3ncc(-c4cnc(C)nc4C)cc23)c1F [Example 10],+++ (IC50(off-target)/IC50(MKK4) > 100)
